# Laboratory results reported in ChEMBL document CHEMBL1201862, “PubChem BioAssay data set” (2004).
#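 Grown in 96-well plates, cells were treated for 48 hours with each compound at five concentrations. Insufficient inhibition: endpoint recorded as highest concentration tested. At the GI50, growth is halved.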 The source made the active and inactive calls. Rule as the data show it: active = GI50 up to about 1.1 µM and inactive = higher.
# Columns and labels:
# Assay in all cases: NCI-60 cell line screen, 48 h
# [1] = system: 786-0
# [2] = system: A498
# [3] = system: A549
# [4] = system: ACHN
# [5] = system: BT-549
# [6] = system: CAKI-1
# [7] = system: CCRF-CEM
# [8] = system: COLO 205
# [9] = system: DU-145
# [10] = system: EKVX
# [11] = system: HCC 2998
# [12] = system: HCT-116
# [13] = system: HCT-15
# [14] = system: HL-60
# [15] = system: HOP-62
# [16] = system: HOP-92
# [17] = system: HT-29
# [18] = system: Hs-578T
# [19] = system: IGROV-1
# [20] = system: K562
# [21] = system: KM12
# [22] = system: LOX IMVI
# [23] = system: M14
# [24] = system: MCF7
# [25] = system: MDA-MB-231
# [26] = system: MDA-MB-435
# [27] = system: MDA-N
# [28] = system: MOLT-4
# [29] = system: Malme-3M
# [30] = system: NCI-H23
# [31] = system: NCI-H460
# [32] = system: NCI-H522
# [33] = system: NCI/ADR-RES
# [34] = system: OVCAR-3
# [35] = system: OVCAR-4
# [36] = system: OVCAR-5
# [37] = system: OVCAR-8
# [38] = system: PC-3
# [39] = system: RPMI-8226
# [40] = system: RXF 393
# [41] = system: SF-268
# [42] = system: SF-295
# [43] = system: SF-539
# [44] = system: SK-MEL-28
# [45] = system: SK-MEL-2
# [46] = system: SK-MEL-5
# [47] = system: SK-OV-3
# [48] = system: SN12C
# [49] = system: SNB-19
# [50] = system: SNB-75
# [51] = system: SW-620
# [52] = system: T47D
# [53] = system: TK-10
# [54] = system: U-251
# [55] = system: UACC-257
# [56] = system: UACC-62
# [57] = system: UO-31
compound,measurement,setting,value
CC[N+]1(C)CCC(O)(/C=C/c2ccc(Cl)cc2)C(C(=O)/C=C/c2ccc(Cl)cc2)C1 (configuration not stated),GI50,[1],3.01 µM (inactive)
same,GI50,[2],16.4 µM (inactive)
same,GI50,[3],13.9 µM (inactive)
same,GI50,[4],3.6 µM (inactive)
same,GI50,[5],13.8 µM (inactive)
same,GI50,[6],1.9 µM (inactive)
same,GI50,[7],1.08 µM (active)
same,GI50,[8],3.55 µM (inactive)
same,GI50,[9],12.1 µM (inactive)
same,GI50,[10],18.8 µM (inactive)
same,GI50,[11],17.5 µM (inactive)
same,GI50,[12],3.48 µM (inactive)
same,GI50,[13],4.56 µM
same,GI50,[14],1.6 µM (inactive)
same,GI50,[15],14.8 µM (inactive)
same,GI50,[16],3.23 µM (inactive)
same,GI50,[17],3.08 µM (inactive)
same,GI50,[18],3.08 µM (inactive)
same,GI50,[19],4.7 µM (inactive)
same,GI50,[20],2.37 µM (inactive)
same,GI50,[21],2.9 µM (inactive)
same,GI50,[22],2.71 µM (inactive)
same,GI50,[23],> 19.9 µM (inactive)
same,GI50,[24],3.92 µM (inactive)
same,GI50,[25],4.81 µM (inactive)
same,GI50,[26],3.85 µM (inactive)
same,GI50,[27],3.45 µM (inactive)
same,GI50,[28],2.5 µM (inactive)
same,GI50,[29],6.62 µM (inactive)
same,GI50,[30],9.89 µM (inactive)
same,GI50,[31],4.48 µM (inactive)
same,GI50,[32],2.88 µM (inactive)
same,GI50,[33],9.64 µM (inactive)
same,GI50,[34],11.5 µM (inactive)
same,GI50,[35],28.4 µM (inactive)
same,GI50,[36],17.3 µM (inactive)
same,GI50,[37],4.59 µM (inactive)
same,GI50,[38],10.7 µM (inactive)
same,GI50,[39],0.327 µM (active)
same,GI50,[40],7.66 µM (inactive)
same,GI50,[41],4.55 µM (inactive)
same,GI50,[42],16.2 µM (inactive)
same,GI50,[43],2.35 µM (inactive)
same,GI50,[44],6.17 µM (inactive)
same,GI50,[45],15.8 µM (inactive)
same,GI50,[46],10.5 µM (inactive)
same,GI50,[47],18 µM (inactive)
same,GI50,[48],7.11 µM (inactive)
same,GI50,[49],4.46 µM (inactive)
same,GI50,[50],11.3 µM (inactive)
same,GI50,[51],2.56 µM (inactive)
same,GI50,[52],4.86 µM (inactive)
same,GI50,[53],3.51 µM (inactive)
same,GI50,[54],3.81 µM (inactive)
same,GI50,[55],14.5 µM (inactive)
same,GI50,[56],13.8 µM (inactive)
same,GI50,[57],6.58 µM (inactive)
